One may read the inhibition as the drop in the measured response relative to a control, in per cent.

This experiment relates to SMMC-7721 cells. Put plainly: MTT colorimetry, inhibition of hepatocellular carcinoma SMMC-7721 cell activity. The format is cell-based. The note with it: 48 hours. On the procedure:
Test for Inhibition of Cancer Cell Activity by Compound of Embodiment 19 (Taking Hepatocellular Carcinoma SMMC-7721 Cells as an embodiment):
SMMC-7721 cells are cultured in DMEM high sugar medium containing 10% fetal bovine serum in a saturated humidity incubator at 37° C. and 5% CO2. The culture medium is changed every two days and passaged every 3-4 days. The drug is prepared as 1 mmol/L and 10 mmol/L storage solution using DMSO as solvent, when used, the concentration is diluted into 1 μmol/L and 10 μmol/L with culture medium, using DMSO as negative control group and gemcitabine as positive control group to act on cells in logarithmic growth phase.
Cells in logarithmic growth phase are digested with 0.025% pancreatin, and then digested with DMEM high sugar medium containing 10% fetal bovine serum. After centrifugation, the cells are suspended in DMEM high sugar medium containing 10% fetal bovine serum. Take a 96-well plate and add 200 μL of sterile water seal to each hole around the plate to ensure saturated humidity in the experiment. In the middle six rows, 100 μL of cell suspension are added respectively, and the cell concentration is about 3.5×10^4 cells/mL. The last row is blank control group, and the same volume of complete culture medium is added. In 37° C., 5% CO2 saturated humidity incubator culture for 24 hours, cells completely adhere to the wall, remove the culture medium, add complete culture medium containing different drugs, 200 μL per hole. The blank control group is added with 200 μL of complete culture medium, and the culture is continued. After 24 hours, the drug effect is observed and photographed under an inverted microscope. After 48 hours, the drug effect is also observed and photographed under an inverted microscope. Then the supernatant is removed. 100 μL of 0.5 mg/mL MTT solution is added to each well. After 4 hours of continuous culture, purple crystal formazan is generated. 100 μL of 10% SDS is added to each well. After 12 hours of culture in an incubator at 37° C., the OD value is measured with an enzyme reader at A571 wavelength. Repeat 6 wells for each sample concentration, and calculate the inhibition rate by taking the average value.

Consider `COc1cc(OC)c2c(=O)c(OCCCCN(C)C3CCN(C(=S)SCc4ccc(Cl)cc4Cl)CC3)c(-c3cc(OC)c(OC)c(OC)c3)oc2c1` [Compound A12, 2,4-dichlorobenzyl-4-((4-((5,7-dimethoxy-4-oxo-2-(3,4,5-trimethoxyphenyl)-4H-benzopyran-3-yl)oxy)butyl) (methyl)amino) piperidine-1-dithiocarboxylic acid], for which the “Inhibition Rate (%)” value is, setting by setting: (1 μmol/L) 98.09 ± 2.68 %; (10 μmol/L) 99.28 ± 1.04 %.
As for `COc1cc(OC)c2c(=O)c(OCCCN(C)C3CCN(C(=S)SCc4cccc(C)c4)CC3)c(-c3cc(OC)c(OC)c(OC)c3)oc2c1` [Compound A5, 3-methylbenzyl 4-((3-((5,7-dimethoxy-4-oxo-2-(3,4,5-trimethoxyphenyl)-4H-chromene-3-yl)oxy)propyl) (methyl)amino) piperidine-1-dithiocarboxylic acid], the “Inhibition Rate (%)” value reads like this: (1 μmol/L) 12.32 ± 2.39 %; (10 μmol/L) 97.52 ± 1.12 %.
For the compound `COc1cc(OC)c2c(=O)c(OCCCN(C)C3CCN(C(=S)SCc4cccnc4)CC3)c(-c3cc(OC)c(OC)c(OC)c3)oc2c1` [Compound A8, pyridine-3-ylmethyl 4-((3-((5,7-dimethoxy-4-oxo-2-(3,4,5-trimethoxyphenyl)-4H-chromene-3-yl)oxy)propyl) (methyl)amino) piperidine-1-dithiocarboxylic acid], the “Inhibition Rate (%)” value is, setting by setting: (1 μmol/L) 15.48 ± 2.74 %; (10 μmol/L) 99.85 ± 1.64 %.
In the same order, the values of `COc1cc(OC)c2c(=O)c(OCCCCN(C)C3CCN(C(=S)SCc4cccnc4)CC3)c(-c3cc(OC)c(OC)c(OC)c3)oc2c1` [Compound A17, pyridine-3-ylmethyl-4-((4-((5,7-dimethoxy-4-oxo-2-(3,4,5-trimethoxyphenyl)-4H-benzopyran-3-yl)oxy)butyl) (methyl)amino) piperidine-1-dithiocarboxylic acid] are 68.42 ± 2.35 % and 100 ± 1.31 %.
The like results for `COc1cc(OC)c2c(=O)c(OCCCCN(C)C3CCN(C(=S)SCc4cccc(C)c4)CC3)c(-c3cc(OC)c(OC)c(OC)c3)oc2c1` [Compound A14, 3-methylbenzyl-4-((4-((5,7-dimethoxy-4-oxo-2-(3,4,5-trimethoxyphenyl)-4H-benzopyran-3-yl)oxy)butyl) (methyl)amino) piperidine-1-dithiocarboxylic acid] were, in that order, 96.65 ± 2.61 % and 100 ± 0.42 %.
On to `COc1cc(OC)c2c(=O)c(OCCCCN(C)C3CCN(C(=S)SCc4ccc(Cl)nc4)CC3)c(-c3cc(OC)c(OC)c(OC)c3)oc2c1` [Compound A18, (6-chloropyridine-3-yl) methyl-4-((4-((5,7-dimethoxy-4-oxo-2-(3,4,5-trimethoxyphenyl)-4H-benzopyran-3-yl)oxy)butyl) (methyl)amino) piperidine-1-dithiocarboxylic acid], for which the “Inhibition Rate (%)” value is, setting by setting: (1 μmol/L) 33.58 ± 1.67 %; (10 μmol/L) 100 ± 0.42 %.
On to `COc1cc(OC)c2c(=O)c(OCCCN(C)C3CCN(C(=S)SCc4ccccc4F)CC3)c(-c3cc(OC)c(OC)c(OC)c3)oc2c1` [Compound A4, 2-fluorobenzyl 4-((3-((5,7-dimethoxy-4-oxo-2-(3,4,5-trimethoxyphenyl)-4H-chromene-3-yl)oxy)propyl)(methyl)amino) piperidine-1-dithiocarboxylic acid], for which the “Inhibition Rate (%)” value was determined as 20.66 ± 1.21 % (1 μmol/L) and 99.85 ± 1.64 % (10 μmol/L).
Turning to `Nc1ccn([C@@H]2O[C@H](CO)[C@@H](O)C2(F)F)c(=O)n1` [Gencitabine, gemcitabine, reference compound], for the setting “Homo sapiens, 1 μmol/L, read-out: Inhibition Rate (%)”, the inhibition at 1 µM was found to be 55.7 ± 2.26%. Besides, the inhibition at 10 µM (Homo sapiens, 10 μmol/L, read-out: Inhibition Rate (%)) stood at 63.5 ± 2.18%.
